Source: patent US9795602B2, “Polycyclic-carbamoylpyridone compounds and their pharmaceutical use” (Gilead Sciences, Inc., priority 2014, dated 2017)

Tests used:
[1] = Plasma protein binding (equilibrium dialysis); format: in vitro ADME; conditions: human, plasma (sodium EDTA) dialysed against buffer; 2 μM in plasma vs. buffer, 24 hours at 37° C.; read-out: % Free HP/Buffer
Procedure: Plasma protein binding was determined using a HTD96b equilibrium dialyzer with a plate base, stainless steel pressure plate and Teflon bock. 9 Teflon bars, labeled sequentially from A through I, were assembled with two stainless steel connecting rods. Membranes were placed between two Teflon bars, with the membrane placed approximately 2 mm below the top edge of the bar and the lower membrane edge overlapped the bottom of all wells. The membrane was soaked for about 20 minutes in water, about 20 minutes in ethanol (30/70 v/v) and rinsed with water three times to remove the ethanol. It was soaked in PBS for at least 30 minutes. Plasma in sodium EDTA (Bioreclamation or equivalent) was used. The Plasma (not pH-adjusted) was stored at −80° C. and thawed at room temperature before use. The stock solution of the compounds tested was at 200 μM in DMSO. The quench solution used was 50 nM of an internal standard in 100% ACN. To prepare a 2 μM solution of the compound tested in plasma, 5 μL of a 200 μM stock solution was added to 495 μL of blank plasma. 100 μL plasma was added with 2 μM of test compound into one side of the well. 100 μL of buffer (for plasma vs. buffer) was added into another side of the well. The 96-well plate was covered using an adhesive sealing film and incubated for 24 hours at 37° C. under slow rotation. This procedure was replicated for each compound. 50 μL of plasma sample was put into a 96 well plate, 50 μL of buffer was added. 50 μL of buffer was put into a 96 well plate. 50 μL of plasma was added. 300 μL of quench solution was added and the plate sealed and shaken for 15 minutes. The material was centrifuged for 30 minutes at 3000 RPM and ˜250 μL was transferred into a short plate. The samples were analyzed by LC/MS. The resulting data is shown in the last row of Table 3 as “% Free” which corresponds to the percentage of compound not protein bound.

[2] = tested on: HIV-1 E92Q/N155H; format: cell-based; conditions: MT2 cells; mean EC50 mutant / mean EC50 wt
Procedure: (§1) For the antiviral assay utilizing MT-2 cells, 50 μL of 2× test concentration of 3-fold serially diluted compound in culture medium with 10% FBS was added to each well of a 96-well plate (9 concentrations) in triplicate. MT-2 cells were infected with wild-type or mutant variants of HIV-1 for 3 hours using a volume of viral inoculum determined to produce 90% cell killing. Fifty microliters of infected cell suspension in culture medium with 10% FBS (˜1.5×10^4 cells) was then added to each well containing 50 μL of serially diluted compound. The plates with HIV-infected cultures were then incubated at 37° C. for 5 days in the presence of the tested compounds. After 5 days of incubation, 100 μL of CellTiter-Glo™ Reagent (catalog # G7571, Promega Biosciences, Inc., Madison, Wis.) was added to each well. Cell lysis was carried out by incubating at room temperature for 10 min followed by a chemiluminescence read-out.
(§2) The chemiluminescence readout from the 10-point antiviral dose response was analyzed directly by curve fitting with equation (I) to determine the EC50.
(§3) where y=Cell Survival, M=maximum cell survival enabled by drug protection, H=baseline cell survival without drug protection, n=Hill coefficient of the antiviral dose response, m=Hill coefficient of the cytotoxicity dose response, and [I]=inhibitor concentration.
(§4) EC50 values (mean±standard deviation) were calculated from at least three independent experiments performed in triplicate. The fold-change in antiviral activity of tested compounds was calculated as a ratio of the mean EC50 for each mutant virus divided by the mean EC50 of the control WT virus.

[3] = tested on: HIV-1 N155H/Q148R; format: cell-based; conditions: MT2 cells; mean EC50 mutant / mean EC50 wt
Procedure: as §1, §2, §3, §4

[4] = tested on: HIV-1 G140S/Q148R; format: cell-based; conditions: MT2 cells; mean EC50 mutant / mean EC50 wt
Procedure: as §1, §2, §3, §4

[5] = tested on: HIV-1 E138K/Q148K; format: cell-based; conditions: MT2 cells; mean EC50 mutant / mean EC50 wt
Procedure: as §1, §2, §3, §4

[6] = molecular target: PXR (NR1I2) (Homo sapiens (Human), UniProt O75469); assay: Human PXR activation assay (luciferase reporter, DPX2 cells); format: cell-based; conditions: human; 15 uM; DPX2 cells; % Emax relative to rifampicin, adjusted for DMSO background; read-out: PXR % inh at 15 uM (adjusted)
Procedure: Luciferase Reporter Gene Assay.
A stably transformed tumor cell line (DPX2) was plated on 96-well microtiter plates. […]. The number of viable cells was determined and the reporter gene activity was assessed. […]

[7] = molecular target: OCT2 (Homo sapiens (Human), UniProt O15244); assay: OCT2 inhibition assay (14C-TEA uptake, OCT2-transfected MDCKII cells); format: cell-based
Procedure: MDCKII cells were maintained in minimal essential medium (MEM) with 1% Pen/Strep, 10% fetal bovine serum, and 0.25 mg/mL hygromycin B in an incubator set at 37° C., 90% humidity and 5% CO2. 24 hours prior to assay, media containing 5 mM sodium butyrate were added to MDCKII cells in flasks, and cells were grown to 80-90% confluence. On assay day, cells were trypsinized and resuspended in Krebs-Henseleit Buffer (KHB), pH 7.4 at […]. Cells were preincubated for 15 min in assay plate before addition of test compound or substrate.
Test compounds were serially diluted in DMSO and then spiked (2 μL) into in 0.4 mL KHB buffer containing wild-type or OCT2-transfected cells and incubated for 10 minutes. Assay was initiated with the addition of 0.1 mL of 100 μM ^14C-TEA in KHB buffer (20 μM final concentration after mixing). The concentration of TEA is based on the Km. After 10 minutes of incubation, the assay mixture was quenched with addition of 0.5 mL of ice-cold 1×PBS buffer. Samples were then centrifuged at 1000 rpm for 5 min and supernatants were removed. Wash steps were repeated four times with ice-cold PBS. Finally, the cell pellets were lysed with 0.2N NaOH and let sit at room temperature for at least 30 min to ensure complete lysis. Samples were then counted on liquid scintillation counter and dpm counts were used to perform the following calculations. The % inhibition was calculated as follows: % inhibition=[1−{[OCT2]i−[WT]ni}/{[OCT2]ni−[WT]ni}]*100 where, [OCT2]i represents the dpm count in the presence of test compound for either OCT2 cells, […] of test compound for OCT2 cells and [WT]ni represents the dpm count in the absence of test compound for wild type cells, respectively.

Sequence of PXR (NR1I2) (O75469 whole entry): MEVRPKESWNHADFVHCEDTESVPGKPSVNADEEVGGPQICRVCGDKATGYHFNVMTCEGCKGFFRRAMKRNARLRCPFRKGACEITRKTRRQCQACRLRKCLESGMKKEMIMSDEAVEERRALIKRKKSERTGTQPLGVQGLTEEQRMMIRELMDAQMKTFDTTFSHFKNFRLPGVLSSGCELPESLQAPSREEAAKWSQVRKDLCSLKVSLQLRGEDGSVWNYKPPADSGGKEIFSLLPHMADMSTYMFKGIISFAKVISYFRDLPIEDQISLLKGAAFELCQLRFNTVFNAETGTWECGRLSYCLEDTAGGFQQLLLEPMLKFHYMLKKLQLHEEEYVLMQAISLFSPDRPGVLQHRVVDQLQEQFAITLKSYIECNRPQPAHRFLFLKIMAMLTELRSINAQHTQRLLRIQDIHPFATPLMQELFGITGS
Sequence of OCT2 (O15244 whole entry): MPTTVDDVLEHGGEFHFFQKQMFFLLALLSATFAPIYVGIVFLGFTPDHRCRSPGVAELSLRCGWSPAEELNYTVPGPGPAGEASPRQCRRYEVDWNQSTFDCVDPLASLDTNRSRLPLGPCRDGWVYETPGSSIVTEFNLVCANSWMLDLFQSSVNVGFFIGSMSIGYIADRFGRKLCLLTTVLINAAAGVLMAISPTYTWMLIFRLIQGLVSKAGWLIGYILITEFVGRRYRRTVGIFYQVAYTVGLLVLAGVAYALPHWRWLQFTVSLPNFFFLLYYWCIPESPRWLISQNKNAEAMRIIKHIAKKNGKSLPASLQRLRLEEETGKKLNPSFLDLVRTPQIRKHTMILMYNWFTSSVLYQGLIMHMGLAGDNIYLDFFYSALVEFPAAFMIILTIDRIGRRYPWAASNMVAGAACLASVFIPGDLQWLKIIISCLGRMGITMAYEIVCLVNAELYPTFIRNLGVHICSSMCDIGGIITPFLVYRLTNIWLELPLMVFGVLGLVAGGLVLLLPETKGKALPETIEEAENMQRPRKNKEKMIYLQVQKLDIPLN

Row | SMILES | fraction unbound at 24 h, 2 µM [1] | Resistance fold shift E92Q/N155H vs. wild type [2] | Resistance fold shift N155H/Q148R vs. wild type [3] | Resistance fold shift G140S/Q148R vs. wild type [4] | Resistance fold shift E138K/Q148K vs. wild type [5] | inhibition at 24 h, 15 µM [6] | IC50 [7]
1 | CCN1C(=O)c2c(O)c(=O)c(C(=O)NCc3ccc(F)c(Cl)c3F)cn2[C@H]2CCO[C@H]21 [Compound 25b] | < 0.001 | 2.2 fold shift | 2.2 fold shift | 1.9 fold shift | 2.3 fold shift | 13% | 10 µM
2 | CCN1C(=O)c2c(O)c(=O)c(C(=O)NCc3ccc(F)c(Cl)c3F)cn2[C@H]2CCOC[C@H]21 [Compound 39] | 0.0067 | 2.3 fold shift | 2.8 fold shift | 1.8 fold shift | 1.5 fold shift | 5% | 10 µM
